The values that follow come from patent US20260085066A1, “LEUCINE RICH REPEAT KINASE 2 (LRRK2) DEGRADING COMPOUNDS AND ASSOCIATED METHODS OF USE” (Arvinas Operations, Inc., priority 2022, published 2026).

In this assay the target is T1, WT LRRK2 (Homo sapiens, UniProt Q5S007).
T1 construct: endogenous in cells; host or cells: HEK293 cells with HiBit knocked into the endogenous LRRK2 gene, stably expressing firefly luciferase
Description: LRRK2 degradation HiBit assay in HEK293 cells (Nano-Glo Dual-Luciferase). To be noted: HiBit-tagged LRRK2 in HEK293 cells, 24 hours compound treatment. The assay is classed as cell-based. (In general: With HiBiT, luminescence reflects the tagged protein that the partner subunit can reach.)

T1 sequence (Q5S007 whole entry): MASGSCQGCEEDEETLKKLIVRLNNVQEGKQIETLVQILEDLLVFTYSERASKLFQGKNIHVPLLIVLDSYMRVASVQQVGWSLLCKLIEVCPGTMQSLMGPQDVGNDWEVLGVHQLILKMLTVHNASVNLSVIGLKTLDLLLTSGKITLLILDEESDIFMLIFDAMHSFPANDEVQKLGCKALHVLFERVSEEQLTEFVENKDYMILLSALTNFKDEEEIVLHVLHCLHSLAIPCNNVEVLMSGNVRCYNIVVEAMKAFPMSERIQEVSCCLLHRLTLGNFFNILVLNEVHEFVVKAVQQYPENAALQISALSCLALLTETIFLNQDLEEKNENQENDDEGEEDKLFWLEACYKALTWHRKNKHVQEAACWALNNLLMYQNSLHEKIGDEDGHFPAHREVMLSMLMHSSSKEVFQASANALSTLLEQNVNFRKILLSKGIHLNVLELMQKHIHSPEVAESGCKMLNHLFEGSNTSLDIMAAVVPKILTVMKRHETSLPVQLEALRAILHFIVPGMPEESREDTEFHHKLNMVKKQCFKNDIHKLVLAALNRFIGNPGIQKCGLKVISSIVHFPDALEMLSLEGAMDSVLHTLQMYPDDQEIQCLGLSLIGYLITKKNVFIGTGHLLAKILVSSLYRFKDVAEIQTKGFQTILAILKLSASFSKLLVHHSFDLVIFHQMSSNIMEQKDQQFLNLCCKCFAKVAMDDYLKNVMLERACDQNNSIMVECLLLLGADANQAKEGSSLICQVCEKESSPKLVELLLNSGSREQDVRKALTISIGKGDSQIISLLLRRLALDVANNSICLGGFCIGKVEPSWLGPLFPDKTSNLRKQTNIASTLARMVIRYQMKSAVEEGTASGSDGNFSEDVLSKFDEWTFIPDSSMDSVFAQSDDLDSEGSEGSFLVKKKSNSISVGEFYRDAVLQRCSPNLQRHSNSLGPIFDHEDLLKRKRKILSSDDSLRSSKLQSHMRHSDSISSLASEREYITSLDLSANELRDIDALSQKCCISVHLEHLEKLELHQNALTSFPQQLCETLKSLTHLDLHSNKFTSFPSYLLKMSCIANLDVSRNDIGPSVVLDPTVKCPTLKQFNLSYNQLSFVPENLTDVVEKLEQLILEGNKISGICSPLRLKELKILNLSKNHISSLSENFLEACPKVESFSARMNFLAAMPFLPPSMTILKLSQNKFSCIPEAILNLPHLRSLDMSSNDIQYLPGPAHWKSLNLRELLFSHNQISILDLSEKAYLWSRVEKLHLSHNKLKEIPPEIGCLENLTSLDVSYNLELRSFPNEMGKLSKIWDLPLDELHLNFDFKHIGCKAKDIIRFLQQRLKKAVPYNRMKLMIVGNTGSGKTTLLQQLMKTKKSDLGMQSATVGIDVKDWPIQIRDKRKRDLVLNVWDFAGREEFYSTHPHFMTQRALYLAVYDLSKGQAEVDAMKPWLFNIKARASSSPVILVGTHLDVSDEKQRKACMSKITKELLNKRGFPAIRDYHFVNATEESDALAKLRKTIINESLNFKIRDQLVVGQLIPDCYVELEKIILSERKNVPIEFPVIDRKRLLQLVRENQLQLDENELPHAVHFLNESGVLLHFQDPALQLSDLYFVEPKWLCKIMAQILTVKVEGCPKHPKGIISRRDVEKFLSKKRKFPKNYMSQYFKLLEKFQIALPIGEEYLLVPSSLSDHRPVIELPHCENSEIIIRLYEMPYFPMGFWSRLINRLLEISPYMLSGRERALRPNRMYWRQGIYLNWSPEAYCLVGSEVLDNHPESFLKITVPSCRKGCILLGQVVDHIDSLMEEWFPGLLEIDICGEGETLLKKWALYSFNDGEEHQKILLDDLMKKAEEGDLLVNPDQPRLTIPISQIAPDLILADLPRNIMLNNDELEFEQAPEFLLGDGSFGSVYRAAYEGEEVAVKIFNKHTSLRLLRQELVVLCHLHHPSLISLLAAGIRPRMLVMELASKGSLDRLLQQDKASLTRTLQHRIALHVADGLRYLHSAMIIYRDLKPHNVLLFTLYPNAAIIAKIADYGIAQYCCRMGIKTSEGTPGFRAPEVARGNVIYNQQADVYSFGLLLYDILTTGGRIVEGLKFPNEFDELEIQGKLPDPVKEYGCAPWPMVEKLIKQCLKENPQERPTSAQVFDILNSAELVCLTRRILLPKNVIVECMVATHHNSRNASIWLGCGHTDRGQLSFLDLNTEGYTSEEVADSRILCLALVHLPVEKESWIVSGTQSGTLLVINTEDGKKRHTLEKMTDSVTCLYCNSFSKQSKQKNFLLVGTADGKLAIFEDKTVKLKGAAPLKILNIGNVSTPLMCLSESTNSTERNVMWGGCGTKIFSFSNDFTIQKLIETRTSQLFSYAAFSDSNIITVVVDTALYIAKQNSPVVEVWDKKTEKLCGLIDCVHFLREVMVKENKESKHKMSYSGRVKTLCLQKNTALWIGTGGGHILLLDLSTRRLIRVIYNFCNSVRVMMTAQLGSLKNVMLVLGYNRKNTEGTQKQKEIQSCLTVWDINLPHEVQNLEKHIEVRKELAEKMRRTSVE

`CC1(Oc2ccc3[nH]nc(-c4cc(N5CCO[C@H](CN6CCN(CC7CCN(c8ccc9c(c8F)CN(C8CCC(=O)NC8=O)C9=O)CC7)CC6)C5)ncn4)c3c2)CC1` (stereo partly drawn) [Example 1, 3-[4-fluoro-5-[4-[[4-[[(2R)-4-[6-[5-(1-methylcyclopropoxy)-1H-indazol-3-yl]pyrimidin-4-yl]morpholin-2-yl]methyl]piperazin-1-yl]methyl]-1-piperidyl]-1-oxo-isoindolin-2-yl]piperidine-2,6-dione] gave a Dmax of 50 to 70%.
On to `CC1(Oc2ccc3[nH]nc(-c4cc(N5CCO[C@@H](CN6CCN(CC7CCN(c8ccc9c(c8F)CN(C8CCC(=O)NC8=O)C9=O)CC7)CC6)C5)ncn4)c3c2)CC1` (some centres unmarked) [Example 2], for which the Dmax lay in the range of 50 to 70%.
To `CC1(Oc2ccc3[nH]nc(-c4cc(N5CCO[C@H](CN6CCN(CC7CCN(c8ccc9c(c8F)CN(C8CCC(=O)NC8=O)C9=O)CC7)CC6(C)C)C5)ncn4)c3c2)CC1` (some centres unmarked) [Example 3] belongs 50 to 70%; to `COc1c(N2CCC(O[C@H]3C[C@H](N4CCC5(CC4)CN(c4cc(-c6[nH]nc7ccc(OC8(C)CC8)cc67)ncn4)C5)C3)CC2)ccc2c1CN(C1CCC(=O)NC1=O)C2=O` (some centres unmarked) [Example 4, 3-[4-methoxy-5-[4-[3-[2-[6-[5-(1-methylcyclopropoxy)-2H-indazol-3-yl]pyrimidin-4-yl]-2,7-diazaspiro[3.5]nonan-7-yl]cyclobutoxy]-1-piperidyl]-1-oxo-isoindolin-2-yl]piperidine-2,6-dione], 50 to 70%.
The molecule `CC1(Oc2ccc3[nH]nc(-c4cc(N5CCN(C[C@@H]6CN(CCC7CCN(c8ccc9c(c8F)CN(C8CCC(=O)NC8=O)C9=O)CC7)CCO6)CC5)ncn4)c3c2)CC1` (some centres unmarked) [Example 5] gave a Dmax of 50 to 70%.
To `CC1(Oc2ccc3[nH]nc(-c4cc(N5CCN(CCC6(F)CCN(CC7CCN(c8ccc9c(c8F)CN(C8CCC(=O)NC8=O)C9=O)CC7)CC6)CC5)ncn4)c3c2)CC1` (centres unmarked) [Example 6, 3-[4-fluoro-5-[4-[[4-fluoro-4-[2-[4-[6-[5-(1-methylcyclopropoxy)-1H-indazol-3-yl]pyrimidin-4-yl]piperazin-1-yl]ethyl]-1-piperidyl]methyl]-1-piperidyl]-1-oxo-isoindolin-2-yl]piperidine-2,6-dione] belongs 50 to 70%; to `CC1(Oc2ccc3[nH]nc(-c4cc(N5CCC(CN6CC[C@@H](CN7CCN(c8ccc9c(c8F)CN(C8CCC(=O)NC8=O)C9=O)CC7)[C@@H](F)C6)CC5)ncn4)c3c2)CC1` (some centres unmarked) [Example 7], 50 to 70%; to `CC1(Oc2ccc3[nH]nc(-c4cc(N5CCN(CCN6CCN(CC7CCN(c8ccc9c(c8F)CN(C8CCC(=O)NC8=O)C9=O)CC7)CC6)CC5)ncn4)c3c2)CC1` (centres unmarked) [Example 8], 50 to 70%.
Molecule `CC1(Oc2ccc3[nH]nc(-c4cc(N5CCN(C[C@@H]6CCN(CC7CCN(c8ccc9c(c8F)CN(C8CCC(=O)NC8=O)C9=O)CC7)C[C@@H]6F)CC5)ncn4)c3c2)CC1` (some centres unmarked) [Example 9] registered a Dmax of 50 to 70%.
The value for `CC1(Oc2ccc3[nH]nc(-c4cc(N5CCN(C[C@H]6CC[C@H](CN7CCN(c8ccc9c(c8F)CN(C8CCC(=O)NC8=O)C9=O)CC7)OC6)CC5)ncn4)c3c2)CC1` (some centres unmarked) [Example 10] was 50 to 70%; that for `CC1(Oc2ccc3[nH]nc(-c4cc(N5CCC(O[C@@H]6CCN(CC7CCN(c8ccc9c(c8F)CN(C8CCC(=O)NC8=O)C9=O)CC7)C(C)(C)C6)CC5)ncn4)c3c2)CC1` (some centres unmarked) [Example 11] was 50 to 70%.
To `CC1(Oc2ccc3[nH]nc(-c4cc(N5CCN(C[C@H]6CN(CC7CCN(c8ccc9c(c8F)CN(C8CCC(=O)NC8=O)C9=O)CC7)CCO6)CC5)ncn4)c3c2)CC1` (stereo partly drawn) [Example 12, 3-[4-fluoro-5-[4-[[(2S)-2-[[4-[6-[5-(1-methylcyclopropoxy)-1H-indazol-3-yl]pyrimidin-4-yl]piperazin-1-yl]methyl]morpholin-4-yl]methyl]-1-piperidyl]-1-oxo-isoindolin-2-yl]piperidine-2,6-dione] belongs 50 to 70%.
Turning to `CC1(Oc2ccc3[nH]nc(-c4cc(N5CCN(C[C@@H]6CN(CC7CCN(c8ccc9c(c8F)CN(C8CCC(=O)NC8=O)C9=O)CC7)CCO6)CC5)ncn4)c3c2)CC1` (some centres unmarked) [Example 13], the greatest degradation seen (Dmax) lay within 50 to 70%.
The value for `CC1(Oc2ccc3[nH]nc(-c4cc(N5CCN(C[C@H]6CC[C@H](OC7CCN(c8ccc9c(c8)CN(C8CCC(=O)NC8=O)C9=O)CC7)CC6)CC5)ncn4)c3c2)CC1` (some centres unmarked) [Example 14, 3-[5-[4-[4-[[4-[6-[5-(1-methylcyclopropoxy)-1H-indazol-3-yl]pyrimidin-4-yl]piperazin-1-yl]methyl]cyclohexoxy]-1-piperidyl]-1-oxo-isoindolin-2-yl]piperidine-2,6-dione] was 50 to 70%; that for `CC1(Oc2ccc3[nH]nc(-c4cc(N5CCN(CC(F)(F)C6CCN(CC7CCN(c8ccc9c(c8F)CN(C8CCC(=O)NC8=O)C9=O)CC7)CC6)CC5)ncn4)c3c2)CC1` (centres unmarked) [Example 15] was 50 to 70%; that for `CC1(Oc2ccc3[nH]nc(-c4cc(N5CCO[C@@H](CN6CCN(CC7CCN(c8ccc9c(c8F)CN(C8CCC(=O)NC8=O)C9=O)CC7)CC6(C)C)C5)cnn4)c3c2)CC1` (some centres unmarked) [Example 16] was 50 to 70%.
To `CC1(Oc2ccc3[nH]nc(-c4cc(N5CCN(C[C@H]6CN(CCC7CCN(c8ccc9c(c8F)CN(C8CCC(=O)NC8=O)C9=O)CC7)CCO6)CC5)ncn4)c3c2)CC1` (some centres unmarked) [Example 17] belongs 50 to 70%; to `Cc1cc(N2CCC(O[C@H]3CC[C@H](CN4CCN(c5cc(-c6n[nH]c7ccc(OC8(C)CC8)cc67)ncn5)CC4)CC3)CC2)c(F)c2c1C(=O)N(C1CCC(=O)NC1=O)C2` (some centres unmarked) [Example 18, 3-(4-fluoro-7-methyl-5-(4-(((1r,4r)-4-((4-(6-(5-(1-methylcyclopropoxy)-1H-indazol-3-yl)pyrimidin-4-yl)piperazin-1-yl)methyl)cyclohexyl)oxy)piperidin-1-yl)-1-oxoisoindolin-2-yl)piperidine-2,6-dione], not below 70%.
The value for `Cc1cc(N2CCC(CN3CCN(CC4CCN(c5cc(-c6n[nH]c7ccc(OC8(C)CC8)cc67)ncn5)CC4)C(C)(C)C3)CC2)c(F)c2c1C(=O)N(C1CCC(=O)NC1=O)C2` (centres unmarked) [Example 19] was 50 to 70%; that for `Cc1cc(N2CCC(O[C@H]3CC[C@@H](CN4CCN(c5cc(-c6n[nH]c7ccc(OC8(C)CC8)cc67)ncn5)CC4)CC3)CC2)c(F)c2c1C(=O)N(C1CCC(=O)NC1=O)C2` (some centres unmarked) [Example 20, 3-(4-fluoro-7-methyl-5-(4-(((1s,4s)-4-((4-(6-(5-(1-methylcyclopropoxy)-1H-indazol-3-yl)pyrimidin-4-yl)piperazin-1-yl)methyl)cyclohexyl)oxy)piperidin-1-yl)-1-oxoisoindolin-2-yl)piperidine-2,6-dione] was less than 50%; that for `CC1(Cc2ccc3[nH]nc(-c4cc(N5CCC(CN6CCN(CC7CCN(c8ccc9c(c8F)CN(C8CCC(=O)NC8=O)C9=O)CC7)CC6)CC5)ncn4)c3c2)CC1` (centres unmarked) [Example 21] was 50 to 70%.
`CC1(Oc2ccc3[nH]nc(-c4cc(N5CCC(C[C@H]6CC[C@@H](OC7CCN(c8ccc9c(c8F)CN(C8CCC(=O)NC8=O)C9=O)CC7)CC6)CC5)ncn4)c3c2)CC1` (some centres unmarked) [Example 22, 3-[4-fluoro-5-[4-[4-[[1-[6-[5-(1-methylcyclopropoxy)-1H-indazol-3-yl]pyrimidin-4-yl]-4-piperidyl]methyl]cyclohexoxy]-1-piperidyl]-1-oxo-isoindolin-2-yl]piperidine-2,6-dione]: the maximal degradation (Dmax) is not below 70%.
To `CC1(Oc2ccc3[nH]nc(-c4cc(N5CCC(C[C@H]6CC[C@H](OC7CCN(c8ccc9c(c8F)CN(C8CCC(=O)NC8=O)C9=O)CC7)CC6)CC5)ncn4)c3c2)CC1` (some centres unmarked) [Example 23] belongs 50 to 70%; to `CC1(Cc2ccc3[nH]nc(-c4cc(N5CCC(OC6CCN(CC7CCN(c8ccc9c(c8F)CN(C8CCC(=O)NC8=O)C9=O)CC7)CC6)CC5)ncn4)c3c2)CC1` (centres unmarked) [Example 24], less than 50%.
To `CC1(Cc2ccc3[nH]nc(-c4cc(N5CCC(CN6CCN(CC7CCN(c8ccc9c(c8F)CN(C8CCC(=O)NC8=O)C9=O)CC7)CC6(C)C)CC5)ncn4)c3c2)CC1` (centres unmarked) [Example 25] belongs less than 50%; to `CC1(Cc2ccc3[nH]nc(-c4cc(N5CCC(CN6CCN(CC7CCN(c8ccc9c(c8F)CN(C8CCC(=O)NC8=O)C9=O)CC7)C(C)(C)C6)CC5)ncn4)c3c2)CC1` (centres unmarked) [Example 26], 50 to 70%.
Regarding `CC1(Oc2ccc3[nH]nc(-c4cc(N5CCC(O[C@H]6CC[C@@H](CC7CCN(c8ccc9c(c8F)CN(C8CCC(=O)NC8=O)C9=O)CC7)CC6)CC5)ncn4)c3c2)CC1` (some centres unmarked) [Example 27], the Dmax is 50 to 70%.
To `COc1c(N2CCC(O[C@H]3CC[C@H](CN4CCN(c5cc(-c6[nH]nc7ccc(CC8(C)CC8)cc67)ncn5)CC4)CC3)CC2)ccc2c1CN(C1CCC(=O)NC1=O)C2=O` (some centres unmarked) [Example 28] belongs 50 to 70%; to `CC1(Oc2ccc3[nH]nc(-c4cc(N5CCC(O[C@H]6CC[C@H](CC7CCN(c8ccc9c(c8F)CN(C8CCC(=O)NC8=O)C9=O)CC7)CC6)CC5)ncn4)c3c2)CC1` (some centres unmarked) [Example 29], not below 70%.

The Dmax is the largest share of the target that was removed. Low readings indicate a partial loss of target, high ones a fuller loss of target.
